Reference: patent publication US20250326772A1, “MRGPRX2 ANTAGONISTS, PHARMACEUTICAL COMPOSITION INCLUDING MRGPRX2 ANTAGONIST, AND METHOD OF TREATING MRGPRX2-MEDIATED DISEASE OR DISORDER” (KYORIN PHARMACEUTICAL CO., LTD., priority 2024, published 2025)

Target: T1, MRGPRX2 (Homo sapiens, UniProt Q96LB1)
T1 sequence (Q96LB1 1-330): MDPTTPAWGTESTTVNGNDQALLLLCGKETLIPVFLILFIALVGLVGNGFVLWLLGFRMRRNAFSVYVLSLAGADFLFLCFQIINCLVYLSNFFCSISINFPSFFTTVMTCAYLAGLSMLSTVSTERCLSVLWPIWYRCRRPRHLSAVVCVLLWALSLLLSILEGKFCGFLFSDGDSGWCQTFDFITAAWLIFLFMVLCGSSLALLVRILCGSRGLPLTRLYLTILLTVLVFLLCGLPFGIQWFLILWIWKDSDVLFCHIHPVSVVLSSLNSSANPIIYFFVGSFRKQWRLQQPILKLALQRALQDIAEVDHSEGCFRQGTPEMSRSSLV
Test: MRGPRX2 reporter cell assay (NFAT-RE luciferase, Substance P stimulation)
Format: cell-based
Details: U2OS cells stably transfected with MRGPRX2 and NFAT-RE luciferase reporter, Substance P at EC80
In short: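 U2OS cells stably expressing MRGPRX2 and an NFAT-RE luc2P reporter, pre-incubated 30 min at 37° C with compound (0.5% DMSO), then stimulated with Substance P at EC80 for 6 h. Luminescence after ONE-GLO; percent inhibition fitted by four-parameter logistic to IC50.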

Compound: O[C@@H]1COc2c(-c3[nH]c4ncccc4c3-c3cccc(F)c3OC(F)F)c(C(F)F)nn2C1 [EX. 466]
- IC50 (class symbols): < 10 nM

Compound: O[C@@H]1COc2c(-c3[nH]c4ncccc4c3-c3ccc(F)cc3OC(F)F)c(C(F)F)nn2C1 [EX. 467]
- IC50 (class symbols): < 10 nM

Compound: O[C@@H]1COc2c(-c3[nH]c4ncccc4c3-c3cc(F)ccc3OC(F)F)c(C(F)F)nn2C1 [EX. 468]
- IC50 (class symbols): < 10 nM

Compound: O[C@@H]1COc2c(-c3[nH]c4ncccc4c3-c3ccccc3OC(F)F)c(C(F)F)nn2C1 [EX. 469]
- IC50 (class symbols): < 10 nM

Compound: N#Cc1ncccc1-c1c(-c2c(C(F)F)nn3c2OC[C@@H](O)C3)[nH]c2ncccc12 [EX. 470]
- IC50 (class symbols): < 10 nM

Compound: COc1ccc(C#N)c(-c2c(-c3c(C(F)F)nn4c3OC[C@@H](F)C4)[nH]c3ncccc23)c1 [EX. 471]
- IC50 (class symbols): < 10 nM

Compound: COc1ncc(F)cc1-c1c(-c2c(C(F)F)nn3c2OC[C@@H](O)C3)[nH]c2ncccc12 [EX. 476]
- IC50 (class symbols): < 10 nM

Compound: N#Cc1ncccc1-c1c(-c2c(C(F)F)nn3c2OC[C@@H](O)C3)[nH]c2ncccc12 [EX. 477]
- IC50 (class symbols): < 10 nM

Compound: Cc1cc(-c2c(-c3c(C(F)F)nn4c3OC[C@@H](O)C4)[nH]c3ncccc23)c(Cl)s1 [EX. 479]
- IC50 (class symbols): < 10 nM

Compound: Cc1nn2c(c1-c1[nH]c3ncccc3c1-c1cn(C)nc1OC(F)F)OC[C@@H](O)C2 [EX. 480, (S)-3-(3-(3-(difluoromethoxy)-1-methyl-1H-pyrazol-4-yl)-1 H-pyrrolo[2,3-b]pyridin-2-yl)-2-methyl-6,7-dihydro-5H-pyrazolo[5,1-b] [1,3]oxazin-6-ol]
- IC50 (class symbols): < 10 nM

Compound: Cn1cc(-c2c(-c3c(C(F)F)nn4c3OC[C@@](C)(O)C4)[nH]c3ncccc23)c(OC(F)F)n1 [EX. 481]
- IC50 (class symbols): < 10 nM

Compound: Cn1cc(-c2c(-c3c(C(F)F)nn4c3OC[C@@](C)(OCC(N)=O)C4)[nH]c3ncccc23)c(OC(F)F)n1 [EX. 482]
- IC50 (class symbols): < 10 nM

Compound: COC(=O)N[C@@H]1COc2c(-c3[nH]c4ncccc4c3-c3cn(C)nc3OC(F)F)c(C3CC3)nn2C1 [EX. 483]
- IC50 (class symbols): < 10 nM

Compound: Cn1cc(-c2c(-c3c(C4CC4)nn4c3OC[C@@H](NS(C)(=O)=O)C4)[nH]c3ncccc23)c(OC(F)F)n1 [EX. 484]
- IC50 (class symbols): < 10 nM

Compound: Cn1cc(-c2c(-c3c(C4CC4)nn4c3OC[C@@H](O)C4)[nH]c3ncccc23)c(OC(F)F)n1 [EX. 485]
- IC50 (class symbols): < 10 nM

Compound: CO[C@]1(C)COc2c(-c3[nH]c4ncccc4c3-c3cc(C)sc3C#N)c(C(F)F)nn2C1 [EX. 486, (S)-3-(2-(2-(difluoromethyl)-6-methoxy-6-methyl-6,7-dihydro-5H-pyrazolo[5,1-b] [1,3]oxazin-3-yl)-1H-pyrrolo[2,3-b]pyridin-3-yl)-5-methylthiophene-2-carbonitrile]
- IC50 (class symbols): < 10 nM

Compound: FC(F)Oc1cnccc1-c1c(-c2c(C(F)F)nn3c2OCCC3)[nH]c2ncccc12 [EX. 489]
- IC50 (class symbols): < 10 nM

Compound: C[C@@]1(N)COc2c(-c3[nH]c4ncccc4c3-c3cccnc3OC(F)F)c(C(F)F)nn2C1 [EX. 490]
- IC50 (class symbols): < 10 nM

Compound: Cn1cc(-c2c(-c3c(C(F)F)nn4c3OC[C@@H](O)C4)[nH]c3ncccc23)c(C#N)n1 [EX. 491, (S)-4-(2-(2-(difluoromethyl)-6-hydroxy-6,7-dihydro-5H-pyrazolo[5,1-b] [1,3]oxazin-3-yl)-1H-pyrrolo[2,3-b]pyridin-3-yl)-1-methyl-1H-pyrazole-3-carbonitrile]
- IC50 (class symbols): < 10 nM

Compound: COC(=O)N[C@]1(C)COc2c(-c3[nH]c4ncccc4c3-c3cccnc3OC(F)F)c(C(F)F)nn2C1 [EX. 492]
- IC50: 1.9 nM
- IC50 (class symbols): < 10 nM

Compound: Cn1cc(-c2c(-c3c(C(F)F)nn4c3OC[C@@](C)(OCCO)C4)[nH]c3ncccc23)c(OC(F)F)n1 [EX. 493]
- IC50 (class symbols): < 10 nM

Compound: COC(=O)N[C@@H]1COc2c(-c3[nH]c4ncccc4c3-c3cc(C)sc3C#N)c(C)nn2C1 [EX. 494]
- IC50 (class symbols): < 10 nM

Compound: OCCO[C@@H]1COc2c(-c3[nH]c4ncccc4c3-c3cccnc3OC(F)F)c(C(F)F)nn2C1 [EX. 495]
- IC50 (class symbols): < 10 nM

Compound: Cc1nn2c(c1-c1[nH]c3ncccc3c1-c1cccnc1OC(F)F)OC[C@@H](O)C2 [EX. 496]
- IC50 (class symbols): < 10 nM

Compound: CO[C@@H]1COc2c(-c3[nH]c4ncccc4c3-c3cccnc3OC(F)F)c(C)nn2C1 [EX. 497]
- IC50 (class symbols): < 10 nM

Compound: Cc1nn2c(c1-c1[nH]c3ncccc3c1-c1cccnc1OC(F)F)OC[C@@H](OCCO)C2 [EX. 498]
- IC50 (class symbols): < 10 nM

Compound: CO[C@@H]1COc2c(-c3[nH]c4ncccc4c3-c3cccnc3OC(F)F)c(C(F)F)nn2C1 [EX. 499]
- IC50 (class symbols): < 10 nM

Compound: Cn1cc(-c2c(-c3c(C(F)F)nn4c3OC[C@@H](OCCO)C4)[nH]c3ncccc23)c(C#N)n1 [EX. 500]
- IC50 (class symbols): < 10 nM

Compound: Cn1cc(-c2c(-c3c(C(F)F)nn4c3OC[C@@H](OCC(C)(C)O)C4)[nH]c3ncccc23)c(C#N)n1 [EX. 501]
- IC50 (class symbols): < 10 nM

Compound: CCO[C@@H]1COc2c(-c3[nH]c4ncccc4c3-c3cn(C)nc3C#N)c(C(F)F)nn2C1 [EX. 502]
- IC50 (class symbols): < 10 nM

Compound: CNC(=O)O[C@@H]1COc2c(-c3[nH]c4ncccc4c3-c3cn(C)nc3C#N)c(C(F)F)nn2C1 [EX. 503]
- IC50 (class symbols): < 10 nM

Compound: Cc1cc(-c2c(-c3c(C)nn4c3OC[C@@H](OCCO)C4)[nH]c3ncccc23)c(C#N)s1 [EX. 504]
- IC50 (class symbols): < 10 nM

Compound: Cc1cc(-c2c(-c3c(C)nn4c3OC[C@@H](NC(=O)C3CC3)C4)[nH]c3ncccc23)c(C#N)s1 [EX. 505]
- IC50 (class symbols): < 10 nM

Compound: CO[C@@H]1COc2c(-c3[nH]c4ncccc4c3-c3cc(C)sc3C#N)c(C(F)F)nn2C1 [EX. 506]
- IC50 (class symbols): < 10 nM

Compound: Cc1cc(-c2c(-c3c(C(F)F)nn4c3OC[C@@H](OCCO)C4)[nH]c3ncccc23)c(C#N)s1 [EX. 507]
- IC50 (class symbols): < 10 nM

Compound: N#Cc1ncccc1-c1c(-c2c(C(F)F)nn3c2OC[C@@H](OCCO)C3)[nH]c2ncccc12 [EX. 508]
- IC50 (class symbols): < 10 nM

Compound: CC(C)(O)CO[C@@H]1COc2c(-c3[nH]c4ncccc4c3-c3cccnc3C#N)c(C(F)F)nn2C1 [EX. 509]
- IC50 (class symbols): < 10 nM

Compound: COC(=O)N[C@@H]1COc2c(-c3[nH]c4ncccc4c3-c3cccnc3OC(F)F)c(C(F)F)nn2C1 [EX. 512, methyl(S)-(3-(3-(2-(difluoromethoxy)pyridin-3-yl)-1H-10 pyrrolo[2,3-b]pyridin-2-yl)-2-(difluoromethyl)-6,7-dihydro-5H-pyrazolo[5,1-b] [1,3]oxazin-6-yl) carbamate]
- IC50 (class symbols): < 10 nM

Compound: COC(=O)N[C@@H]1COc2c(-c3[nH]c4ncccc4c3-c3cccnc3OC(F)F)c(C)nn2C1 [EX. 513]
- IC50 (class symbols): < 10 nM

Compound: COC(=O)N[C@@H]1COc2c(-c3[nH]c4ncccc4c3-c3cccnc3C#N)c(C(F)F)nn2C1 [EX. 514]
- IC50 (class symbols): < 10 nM

Compound: COC(=O)N[C@@H]1COc2c(-c3[nH]c4ncccc4c3-c3ccncc3C#N)c(C(F)F)nn2C1 [EX. 515]
- IC50 (class symbols): < 10 nM

Compound: COC(=O)N[C@@H]1COc2c(-c3[nH]c4ncccc4c3-c3cc(C)sc3C#N)c(C(F)F)nn2C1 [EX. 516]
- IC50 (class symbols): < 10 nM

Compound: COC(=O)N[C@@H]1COc2c(-c3[nH]c4ncccc4c3-c3cn(C)nc3C#N)c(C(F)F)nn2C1 [EX. 517]
- IC50: 3.2 nM
- IC50 (class symbols): < 10 nM

Compound: COC(=O)N[C@@H]1COc2c(-c3[nH]c4ncccc4c3-c3csnc3OC(F)F)c(C(F)F)nn2C1 [EX. 518]
- IC50 (class symbols): < 10 nM

Compound: COC(=O)N[C@@H]1COc2c(-c3[nH]c4ncsc4c3-c3cn(C)nc3OC(F)F)c(C(F)F)nn2C1 [EX. 519]
- IC50 (class symbols): < 10 nM
